The results in this text go back to patent publication US9643946B2, “Tricyclic compound and use thereof” (SK CHEMICALS CO., LTD., priority 2013, dated 2017).

For one assay, the target named is human GPR40 protein (Homo sapiens, UniProt O14842). Nature of the assay: GPR40 agonist binding inhibition (displacement of 3H-labeled propanoic acid radioligand). As to conditions: membrane protein including human GPR40, 3H-labeled propanoic acid radioligand, 25° C., 2 hours; read-out: Half maximal inhibitory concentration. As for the experimental part: Measurement of 50% Inhibitory Concentration (ID50) for GPR40 Agonist Binding
Sequence of human GPR40 protein (O14842 whole entry): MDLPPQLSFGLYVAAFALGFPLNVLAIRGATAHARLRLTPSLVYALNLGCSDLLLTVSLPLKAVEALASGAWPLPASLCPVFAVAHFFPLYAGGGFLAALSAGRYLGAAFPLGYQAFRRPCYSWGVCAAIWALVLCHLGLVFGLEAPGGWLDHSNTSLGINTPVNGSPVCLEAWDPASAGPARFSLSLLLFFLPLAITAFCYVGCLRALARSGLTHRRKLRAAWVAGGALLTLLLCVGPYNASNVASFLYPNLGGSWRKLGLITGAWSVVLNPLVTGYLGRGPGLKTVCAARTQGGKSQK
To examine the efficacy of the compounds according to one exemplary embodiment of the present invention in modulating GPR40, the half maximal inhibitory concentrations (IC50) of the compounds according to one exemplary embodiment of the present invention were measured by Microbeta2™ (PerkinElmer Inc.) using a change in radiation dose emitted from ^3H-labeled propanoic acid (i.e., 3-(4-((2,6′-dimethyl-6-((4-(^3H))-phenylmethoxy)biphenyl-3-yl)methoxy)phenyl)propanoic acid), which is a radioactive isotope which binds to a human GPR40 protein, as an indicator.
Specifically, a test compound was prepared by serial dilution with DMSO, and 100 μL of a binding buffer (including 25 mM HEPES (pH 7.5), 5 mM MgCl2, 100 mM NaCl, and 0.1% free fatty acid BSA; Sigma-Aldrich Corp.) was put into each well of a 96-well transparent plate. Thereafter, each of the diluted compound, propanoic acid which was prepared by dissolving propanoic acid in DMSO to a concentration of 500 mM and not labeled with a radioactive isotope, and DMSO was dispensed at 5 μL per well. ^3H-labeled propanoic acid was dissolved in a binding buffer at a concentration of 1 nM and dispensed at 50 μL into the corresponding wells, and a membrane protein including a human GPR40 protein was dissolved in a binding buffer at a concentration of 20 μg/well and dispensed at 100 μL, into the corresponding wells.
After the dispensation was completed, the plate was incubated at a temperature of 25° C. and a rotary speed of 230 rpm for 2 hours while shaking. A human GPR40 complex was transferred to Filtermat A (PerkinElmer Inc.) using a cell harvester (PerkinElmer Inc.), washed 10 times with 50 mM tris-HCl, dried, and then scintillated using Meltilex (PerkinElmer Inc.). Thereafter, an emitted radiation dose was measured using Microbeta2™. The radiation doses emitted from the complex in the well containing 10 mM unlabeled propanoic acid and the complex in the well containing DMSO alone were set as 0% and 100%, respectively. Thus, a change curve for each of the radiation doses was plotted to calculate the half maximal inhibitory concentration of the test compound.

In a further assay the test system is male ZFDM rats. Kind of assay: Hypoglycemic rate after oral glucose loading in rats. Type of assay: in vivo, rat. The conditions noted are these: oral 0.1 to 30 mg/kg one hour before glucose loading (1.5 g/kg), blood glucose AUC 0 to 120 minutes versus control. As for the experimental part:
Measurement of Hypoglycemic Rate in Rats
An effect of the compound according to one exemplary embodiment of the present invention on blood glucose inhibition after glucose loading was examined in male ZFDM rats (Japan SLC, Inc.).
Specifically, male ZFDM rats (7 week-old) pre-fed for a week were fasted overnight, and used as an animal to be tested. A test compound was prepared into a 0.5% methylcellulose suspension, which was orally administered to rats at a dose of 0.1 to 30 mg/kg before an hour of glucose loading (1.5 g/kg). As the control, 0.5% methylcellulose was administered. After the glucose administration, blood was drawn from the rats' tails after 0, 15, 30, 60 and 120 minutes to measure a blood glucose level. The area under the curve (AUC) for compound treatment was calculated using a blood glucose change profile from t=0 to 120 minutes, and a hypoglycemic rate (%) for the control was calculated.

Take `CS(=O)(=O)CCCOc1ccc2c(c1)CCCc1ccc(CNc3ccc([C@H]4C[C@@H]4C(=O)O)cc3)cc1-2` [Example 6, (1S,2S)-2-(4-(((9-(3-(methylsulfonyl)propoxy)-6,7-dihydro-5H-dibenzo[a,c][7]annulen-2-yl)methyl)amino)phenyl)cyclopropanecarboxylic acid]: the IC50 on human GPR40 protein came to 116 nM. This compound also had a Hypoglycemic rate in the assay with male ZFDM rats of 18.0%.
In the case of `CC#C[C@@H](CC(=O)O)c1ccc(OCc2ccc3c(c2)-c2ccc(OCCCS(C)(=O)=O)cc2CCC3)cc1` [Example 108, (S)-3-(4-((9-(3-(methylsulfonyl)propoxy)-6,7-dihydro-5H-dibenzo[a,c][7]annulen-2-yl)methoxy)phenyl)hex-4-ynoic acid], the Hypoglycemic rate in the assay on male ZFDM rats is given as 37.5%.
